Test results published in patent US10100061B2, “Oxazepine compound and agricultural/horticultural insecticide containing said compound as active ingredient, and method for using the same” (NIHON NOHYAKU CO., LTD., priority 2014, dated 2018).

Columns and labels:
[1] = test system: Green Peach Aphid (Myzus Persicae); assay: Test of preventive value against green peach aphid (Test Example 1); format: in vivo; details: 500 ppm, sprayed over stems and leaves of potted Chinese cabbages, sixth day after spraying
Method: Test of Preventive Value Against Green Peach Aphid (Myzus Persicae)
Chinese cabbages were planted in plastic pots, each with a size of 8 cm in diameter and 8 cm in height, after which green peach aphids were propagated and the number of parasitic insects was examined in each pot. An oxazepine compound or salt thereof expressed by General Formula (I) according to the present invention was dispersed in water and the dispersion was diluted to 500 ppm in the form of a reagent, after which the reagent was sprayed over stems and leaves of potted Chinese cabbages and let dry under wind, and the pots were kept in a greenhouse, and on the sixth day after the reagent was sprayed, the number of green peach aphids living parasitically on each Chinese cabbage was examined and the preventive value was calculated based on the formula below, and judgment was made according to the criteria below. Preventive value=100−{(T×Ca)/(Ta×C)}×100 [Mathematical Formula 1] • Ta: Number of parasitic insects inside the treatment area before spraying • T: Number of parasitic insects inside the treatment area after spraying • Ca: Number of parasitic insects inside the non-treatment area before spraying • C: Number of parasitic insects inside the non-treatment area after spraying Judgment Criteria • A - - - Preventive value: 100% • B - - - Preventive value: 99%˜90% • C - - - Preventive value: 89%˜80% • D - - - Preventive value: 79%˜50%

[2] = test system: Small Brown Planthopper (Laodelphax Striatellus); assay: Test of insecticidal efficacy against small brown planthopper (Test Example 2); format: in vivo; details: 500 ppm, rice plants soaked 30 seconds, third-instar larvae, eight days after inoculation; criteria same as in Test Example 1
Text: Test of Insecticidal Efficacy Against Small Brown Planthopper (Laodelphax Striatellus)

SMILES | Preventive value, judgment [1] | Corrected insect mortality, judgment [2]
C#CCN1C(=O)c2nn(-c3cccnc3)cc2Oc2ccc(Cl)cc21 [8-56] | A to D | A to D
CCOCN1C(=O)c2nn(-c3cccnc3)cc2Oc2ccc(F)cc21 [8-46] | A to D | A to D
CN1C=COc2cn(-c3cccnc3)nc2C1=O [7-2] | A to D | A to D
CN(C)c1ccc2c(c1)N(C)C(=O)c1nn(-c3cccnc3)cc1O2 [1-46] | A to D | A to D
COC(CN1C(=O)c2nn(-c3cccnc3)cc2Oc2ccccc21)OC [8-10] | A to D | A to D
CN1C(=O)c2nn(-c3cccnc3)cc2Oc2cccc(F)c21 [1-19] | A to D | A to D
O=C1Nc2cc(F)ccc2Oc2cn(-c3cccnc3)nc21 [1-14] | A to D | A to D
COCCN1C(=O)c2nn(-c3cccnc3)cc2Oc2ccccc21 [1-68] | A to D | A to D
Nc1ccc2c(c1)NC(=O)c1nn(-c3cccnc3)cc1O2 [1-44] | A to D | A to D
O=C1c2nn(-c3cccnc3)cc2Oc2ccccc2N1CC(F)(F)C(F)(F)F [8-20] | A to D | A to D
CSCN1C(=O)c2nn(-c3cccnc3)cc2Oc2cc(F)ccc21 [8-24] | A to D | A to D
CN1C(=O)c2nn(-c3cccnc3)cc2Oc2ccncc21 [12-1] | A to D | A to D
O=C1Nc2cc(Cl)ccc2Oc2cn(-c3cccnc3)nc21 [8-54] | A to D | A to D
O=C1Nc2cccc(F)c2Oc2cn(-c3cccnc3)nc21 [1-6] | A to D | A to D
CN1C(=O)c2nn(-c3cccnc3)cc2Oc2ccc(N)cc21 [1-45] | A to D | A to D
NC1=Nc2ccccc2Oc2cn(-c3cccnc3)nc21 [11-5] | A to D | A to D
CN1C(=O)c2nn(-c3cccnc3)cc2Oc2ccc(F)cc21 [1-15] | A to D | A to D
CN1C(=O)c2nn(-c3cccnc3)cc2Oc2nccnc21 [13-1] | A to D | A to D
O=C1c2nn(-c3cccnc3)cc2Oc2ccc(F)cc2N1CCCCBr [8-40] | A to D | A to D

SMILES | Preventive value, judgment [1] | Corrected insect mortality, judgment [2]
Cc1ccc2c(c1)Oc1cn(-c3cccnc3)nc1C(=O)N2 [1-30] | A to D | A to D
COc1ccc2c(c1)Oc1cn(-c3cccnc3)nc1C(=O)N2 [1-39] | A to D | A to D
C#CCN1C(=O)c2nn(-c3cccnc3)cc2Oc2cc(OC)ccc21 [1-41] | A to D | A to D
CN1C(=O)c2nn(-c3cncnc3)cc2Oc2ccccc21 [1-79] | A to D | A to D
CC(C)(C)OC(=O)CN1C(=O)c2nn(-c3cccnc3)cc2Oc2ccccc21 [1-75] | A to D | A to D
O=C1c2nn(-c3cccnc3)cc2Oc2ccccc2N1CC(F)(F)F [1-5] | A to D | A to D
O=C1c2nn(-c3cccnc3)cc2Oc2ccc(F)cc2N1CCCl [8-38] | A to D | A to D
N#CCN1C(=O)c2nn(-c3cccnc3)cc2Oc2c(F)cccc21 [1-9] | A to D | A to D
C#CCN1C(=O)c2nn(-c3cccnc3)cc2Oc2cc(C)ccc21 [1-32] | A to D | A to D
COc1ccc(CN2C(=O)c3nn(-c4cccnc4)cc3Oc3ccccc32)cc1 [1-56] | A to D | A to D
N#CCN1C(=O)c2nn(-c3cccnc3)cc2Oc2ccc(F)cc21 [1-17] | A to D | A to D
CN1C(=S)c2nn(-c3cccnc3)cc2Oc2ccccc21 [Compound No. 2-2, 9-methyl-2-(pyridine-3-yl)-2H-benzo [b]pyrazolo [3,4-f][1,4]oxazepine-10 (9H)-thione] | A to D | A to D
O=C1Nc2ccc(Cl)cc2Oc2cn(-c3cccnc3)nc21 [1-26] | A to D | A to D
COc1ccc2c(c1)Oc1cn(-c3cccnc3)nc1C(=O)N2CC#N [1-42] | A to D | A to D
C#CCN1C(=O)c2nn(-c3cncc(F)c3)cc2Oc2cc(F)ccc21 [1-81] | A to D | A to D
C#CCN1C(=O)c2nn(-c3cccnc3)cc2Oc2ccc(F)cc21 [1-16] | A to D | A to D
Fc1ccc2c(c1)NCc1nn(-c3cccnc3)cc1O2 [Compound No. 3-6, 7-fluoro-2-(pyridine-3-yl)-9,10-dihydro-2H-benzo [b]pyrazolo [3,4-f][1,4]oxazepine] | A to D | A to D
O=C1OCCC1N1C(=O)c2nn(-c3cccnc3)cc2Oc2cc(F)ccc21 (stereo not drawn) [8-31] | A to D | A to D
CCCCCCN1C(=O)c2nn(-c3cccnc3)cc2Oc2ccccc21 [1-52] | A to D | A to D

SMILES | Preventive value, judgment [1] | Corrected insect mortality, judgment [2]
C#CCN1C(=O)c2nn(-c3cccnc3)cc2Oc2cc(C(F)(F)F)ccc21 [1-35] | A to D | A to D
C#CCN1C(=O)c2nn(-c3cccnc3)cc2Oc2cc(F)ccc21 [1-12] | A to D | A to D
ONC1=Nc2ccccc2Oc2cn(-c3cccnc3)nc21 [11-9] | A to D | A to D
N#CCN1C(=O)c2nn(-c3cccnc3)cc2Oc2cc(Cl)ccc21 [1-29] | A to D | A to D
CN1C(=O)c2nn(-c3cccnc3)cc2Oc2c(Cl)cccc21 [1-23] | A to D | A to D
COC(CN1C(=O)c2nn(-c3cccnc3)cc2Oc2ccc(F)cc21)OC [8-42] | A to D | A to D
CN1C(=O)c2nn(-c3cncc(F)c3)cc2Oc2cc(F)ccc21 [1-80] | A to D | A to D
C#CCN1C(=O)c2nn(-c3cccnc3)cc2Oc2ccccc21 [1-3] | A to D | A to D
Cc1nn(C)c2c1N(CC#N)C(=O)c1nn(-c3cccnc3)cc1O2 [14-5] | A to D | A to D
O=C1Nc2ccccc2Oc2cn(-c3cccnc3)nc21 [Compound No. 1-1, 2-(pyridine-3-yl)-2H-benzo [b]pyrazolo [3,4-f][1,4]oxazepine-10 (9H)-one] | A to D | A to D
COC(=O)CN1C(=O)c2nn(-c3cccnc3)cc2Oc2ccccc21 [1-74] | A to D | A to D
O=C1c2nn(-c3cccnc3)cc2Oc2ccccc2N1CCc1ccccc1 [1-62] | A to D | A to D
O=C1c2nn(-c3cccnc3)cc2Oc2ccccc2N1Cc1cccnc1 [1-58] | A to D | A to D
C=CCN1C(=O)c2nn(-c3cccnc3)cc2Oc2ccccc21 [1-55] | A to D | A to D
C#CCN1C(=O)c2nn(-c3cccnc3)cc2Oc2cc(Cl)ccc21 [1-28] | A to D | A to D
CC(=O)N1C(=O)c2nn(-c3cccnc3)cc2Oc2ccccc21 [1-73] | A to D | A to D
C#CCN1C(=O)c2nn(-c3cccnc3)cc2Oc2c(F)cccc21 [1-8] | A to D | A to D
C=CCN1C(=O)c2nn(-c3cccnc3)cc2Oc2ccc(F)cc21 [8-35] | A to D | A to D
COCN1C(=O)c2nn(-c3cccnc3)cc2Oc2ccc(F)cc21 [8-45] | A to D | A to D
